Measurements taken from the CheMixHub viscosity set.
± gives the uncertainty stated by the source.

Experiment: xn = mol fraction of the nth substance listed

ClC(Cl)(Cl)Cl + CCCCO
Settings	viscosity [mPa·s]
298.15 K, 101 kPa, x2 = 0.0326	0.903 ± 0.009
298.15 K, 101 kPa, x2 = 0.0846	0.92 ± 0.009
298.15 K, 101 kPa, x2 = 0.1	0.918 ± 0.024
298.15 K, 101 kPa, x2 = 0.19	0.975 ± 0.026
298.15 K, 101 kPa, x2 = 0.2668	1.058 ± 0.01
298.15 K, 101 kPa, x2 = 0.27	1.046 ± 0.027
298.15 K, 101 kPa, x2 = 0.34	1.135 ± 0.03
298.15 K, 101 kPa, x2 = 0.425	1.293 ± 0.012
298.15 K, 101 kPa, x2 = 0.4916	1.42 ± 0.013
298.15 K, 101 kPa, x2 = 0.58	1.56 ± 0.041
298.15 K, 101 kPa, x2 = 0.629	1.778 ± 0.016
298.15 K, 101 kPa, x2 = 0.67	1.794 ± 0.047
298.15 K, 101 kPa, x2 = 0.6978	1.88 ± 0.017
298.15 K, 101 kPa, x2 = 0.76	1.979 ± 0.052
298.15 K, 101 kPa, x2 = 0.7789	2.078 ± 0.019
298.15 K, 101 kPa, x2 = 0.836	2.291 ± 0.021
298.15 K, 101 kPa, x2 = 0.89	2.325 ± 0.061
298.15 K, 101.32 kPa, x2 = 0.09917	0.919 ± 0.0007
298.15 K, 101.32 kPa, x2 = 0.1956	0.972 ± 0.0007
298.15 K, 101.32 kPa, x2 = 0.3011	1.074 ± 0.0007
298.15 K, 101.32 kPa, x2 = 0.3746	1.163 ± 0.0008
298.15 K, 101.32 kPa, x2 = 0.5434	1.464 ± 0.0008
298.15 K, 101.32 kPa, x2 = 0.5847	1.552 ± 0.0008
298.15 K, 101.32 kPa, x2 = 0.687	1.806 ± 0.0008
298.15 K, 101.32 kPa, x2 = 0.7888	2.065 ± 0.0009
298.15 K, 101.32 kPa, x2 = 0.8923	2.329 ± 0.0009
303.15 K, 101 kPa, x2 = 0.0559	0.8424 ± 0.0068
303.15 K, 101 kPa, x2 = 0.057	0.8423 ± 0.0068
303.15 K, 101 kPa, x2 = 0.1084	0.8543 ± 0.0069
303.15 K, 101 kPa, x2 = 0.1137	0.856 ± 0.0069
303.15 K, 101 kPa, x2 = 0.1851	0.8882 ± 0.0071
303.15 K, 101 kPa, x2 = 0.1887	0.8907 ± 0.0071
303.15 K, 101 kPa, x2 = 0.2871	0.9679 ± 0.0077
303.15 K, 101 kPa, x2 = 0.3823	1.076 ± 0.0085
303.15 K, 101 kPa, x2 = 0.4772	1.215 ± 0.0095
303.15 K, 101 kPa, x2 = 0.5086	1.268 ± 0.0099
303.15 K, 101 kPa, x2 = 0.6468	1.527 ± 0.012
303.15 K, 101 kPa, x2 = 0.6792	1.593 ± 0.012
303.15 K, 101 kPa, x2 = 0.7591	1.764 ± 0.013
303.15 K, 101 kPa, x2 = 0.8416	1.943 ± 0.015
303.15 K, 101 kPa, x2 = 0.893	2.054 ± 0.016
303.15 K, 101 kPa, x2 = 0.9516	2.176 ± 0.017
303.15 K, 101 kPa, x2 = 0.9563	2.186 ± 0.017
303.15 K, 101.3 kPa, x1 = 0.7915	1.005 ± 0.05
308.15 K, 101 kPa, x2 = 0.0846	0.801 ± 0.008
308.15 K, 101 kPa, x2 = 0.2668	0.902 ± 0.009
308.15 K, 101 kPa, x2 = 0.629	1.372 ± 0.013
308.15 K, 101 kPa, x2 = 0.6978	1.487 ± 0.014
308.15 K, 101 kPa, x2 = 0.7789	1.647 ± 0.015
308.15 K, 101 kPa, x2 = 0.836	1.76 ± 0.016
318.15 K, 101 kPa, x2 = 0.0326	0.684 ± 0.007
318.15 K, 101 kPa, x2 = 0.0846	0.692 ± 0.007
318.15 K, 101 kPa, x2 = 0.2668	0.773 ± 0.008
318.15 K, 101 kPa, x2 = 0.425	0.883 ± 0.009
318.15 K, 101 kPa, x2 = 0.4916	0.95 ± 0.009
318.15 K, 101 kPa, x2 = 0.629	1.116 ± 0.011
318.15 K, 101 kPa, x2 = 0.6978	1.189 ± 0.011
318.15 K, 101 kPa, x2 = 0.7789	1.313 ± 0.012
318.15 K, 101 kPa, x2 = 0.836	1.416 ± 0.013

CCCOC(C)=O + CCCCOC(C)=O
viscosity [mPa·s], 101 kPa
Settings	x1 = 0.2	x1 = 0.4	x1 = 0.6	x1 = 0.8
293.15 K	0.697 ± 0.007	0.67 ± 0.007	0.644 ± 0.007	0.618 ± 0.006
313.15 K	0.538 ± 0.006	0.519 ± 0.005	0.5 ± 0.005	0.481 ± 0.005

ClC(Cl)(Cl)Cl + CCCCOC(C)=O
101.33 kPa
Settings	viscosity [mPa·s]
303.15 K, x1 = 0.1942	0.664 ± 0.006
303.15 K, x1 = 0.3145	0.685 ± 0.006
303.15 K, x1 = 0.4207	0.702 ± 0.006
303.15 K, x1 = 0.5252	0.72 ± 0.006
303.15 K, x1 = 0.5754	0.732 ± 0.006
303.15 K, x1 = 0.7049	0.759 ± 0.006
303.15 K, x1 = 0.7537	0.774 ± 0.006
303.15 K, x1 = 0.8196	0.788 ± 0.006
303.15 K, x1 = 0.8765	0.803 ± 0.007
303.15 K, x1 = 0.9415	0.823 ± 0.007
313.15 K, x1 = 0.2041	0.587 ± 0.005
313.15 K, x1 = 0.4028	0.619 ± 0.005
313.15 K, x1 = 0.5068	0.634 ± 0.005
313.15 K, x1 = 0.604	0.651 ± 0.005
313.15 K, x1 = 0.8058	0.695 ± 0.006

CCN(CC)CC + CCCCOCCO
viscosity [mPa·s], 100 kPa
Settings	298.15 K	303.15 K	308.15 K
x2 = 0.0506	0.431 ± 0.1	0.407 ± 0.1	0.383 ± 0.1
x2 = 0.1002	0.51 ± 0.1	0.474 ± 0.1	0.447 ± 0.1
x2 = 0.1499	0.598 ± 0.1	0.553 ± 0.1	0.518 ± 0.1
x2 = 0.2	0.689 ± 0.1	0.632 ± 0.1	0.594 ± 0.1
x2 = 0.3001	0.875 ± 0.1	0.802 ± 0.1	0.75 ± 0.1
x2 = 0.3999	1.097 ± 0.1	0.99 ± 0.1	0.922 ± 0.1
x2 = 0.5001	1.35 ± 0.1	1.212 ± 0.1	1.122 ± 0.1
x2 = 0.6	1.632 ± 0.1	1.457 ± 0.1	1.342 ± 0.1
x2 = 0.6996	1.946 ± 0.1	1.714 ± 0.1	1.576 ± 0.1
x2 = 0.7994	2.254 ± 0.1	1.979 ± 0.1	1.809 ± 0.1
x2 = 0.8995	2.578 ± 0.1	2.264 ± 0.1	2.058 ± 0.1
x2 = 0.9498	2.724 ± 0.1	2.392 ± 0.1	2.174 ± 0.1

ClC(Cl)(Cl)Cl + CCCCOCCO
298.15 K, 101.3 kPa
Settings	viscosity [mPa·s]
x2 = 0.0054	0.913 ± 0.011
x2 = 0.0106	0.919 ± 0.011
x2 = 0.0262	0.918 ± 0.011
x2 = 0.0778	0.968 ± 0.012
x2 = 0.1296	1.035 ± 0.013
x2 = 0.1914	1.125 ± 0.014
x2 = 0.2889	1.283 ± 0.015
x2 = 0.3826	1.47 ± 0.017
x2 = 0.4809	1.687 ± 0.02
x2 = 0.5388	1.81 ± 0.021
x2 = 0.5933	1.935 ± 0.022
x2 = 0.6963	2.162 ± 0.025
x2 = 0.7923	2.385 ± 0.027
x2 = 0.8841	2.589 ± 0.029
x2 = 0.9631	2.759 ± 0.031

ClC(Cl)(Cl)Cl + CCCO
101 kPa
Settings	viscosity [mPa·s]
298.15 K, x2 = 0.0685	0.89 ± 0.009
298.15 K, x2 = 0.1	0.903 ± 0.024
298.15 K, x2 = 0.1294	0.909 ± 0.009
298.15 K, x2 = 0.2085	0.962 ± 0.009
298.15 K, x2 = 0.22	0.946 ± 0.025
298.15 K, x2 = 0.2859	1.02 ± 0.01
298.15 K, x2 = 0.31	1.012 ± 0.027
298.15 K, x2 = 0.39	1.089 ± 0.029
298.15 K, x2 = 0.3964	1.113 ± 0.011
298.15 K, x2 = 0.5849	1.317 ± 0.012
298.15 K, x2 = 0.63	1.409 ± 0.037
298.15 K, x2 = 0.72	1.554 ± 0.041
298.15 K, x2 = 0.79	1.667 ± 0.044
298.15 K, x2 = 0.8446	1.724 ± 0.016
298.15 K, x2 = 0.8705	1.769 ± 0.016
298.15 K, x2 = 0.8955	1.808 ± 0.017
298.15 K, x2 = 0.91	1.88 ± 0.049
298.15 K, x2 = 0.9511	1.877 ± 0.017
303.15 K, x2 = 0.0615	0.8319 ± 0.0067
303.15 K, x2 = 0.0651	0.8324 ± 0.0067
303.15 K, x2 = 0.1059	0.8333 ± 0.0067
303.15 K, x2 = 0.2377	0.8752 ± 0.007
303.15 K, x2 = 0.3576	0.9546 ± 0.0076
303.15 K, x2 = 0.4503	1.041 ± 0.0083
303.15 K, x2 = 0.5592	1.163 ± 0.0091
303.15 K, x2 = 0.6985	1.339 ± 0.01
303.15 K, x2 = 0.7899	1.461 ± 0.011
303.15 K, x2 = 0.8376	1.524 ± 0.012
303.15 K, x2 = 0.8976	1.603 ± 0.012
303.15 K, x2 = 0.9626	1.682 ± 0.013
303.15 K, x2 = 0.9633	1.684 ± 0.013
308.15 K, x2 = 0.0685	0.775 ± 0.008
308.15 K, x2 = 0.1294	0.785 ± 0.008
308.15 K, x2 = 0.2085	0.817 ± 0.008
308.15 K, x2 = 0.2859	0.849 ± 0.008
308.15 K, x2 = 0.3964	0.905 ± 0.009
308.15 K, x2 = 0.5849	1.071 ± 0.01
308.15 K, x2 = 0.8446	1.383 ± 0.013
308.15 K, x2 = 0.8705	1.402 ± 0.013
308.15 K, x2 = 0.8955	1.435 ± 0.014
308.15 K, x2 = 0.9511	1.487 ± 0.014
318.15 K, x2 = 0.0685	0.676 ± 0.007
318.15 K, x2 = 0.1294	0.686 ± 0.007
318.15 K, x2 = 0.2085	0.702 ± 0.007
318.15 K, x2 = 0.2859	0.735 ± 0.007
318.15 K, x2 = 0.3964	0.772 ± 0.008
318.15 K, x2 = 0.5849	0.882 ± 0.009
318.15 K, x2 = 0.8446	1.109 ± 0.011
318.15 K, x2 = 0.8705	1.128 ± 0.011
318.15 K, x2 = 0.8955	1.152 ± 0.011
318.15 K, x2 = 0.9511	1.196 ± 0.011
